Test results published in ChEMBL document CHEMBL4190279 (Eur J Med Chem, 2017).
The source made the active and inactive calls. The rule behind the calls is not given here.

Tests used:
SW1573 [1] = test: Cell cycle arrest in human SW1573 cells assessed as accumulation at G1-phase at 0.2 uM after 24 hrs by propidium iodide staining based flow cytometry; assay type: functional
SW1573 [2] = test: cells; details: Homo sapiens, SW1573, 48 h
Description: Antiproliferative activity against human SW1573 cells after 48 hrs by SRB assay

HeLa [3] = test: Cell cycle arrest in human HeLa cells assessed as accumulation at G1-phase at 0.2 uM after 24 hrs by propidium iodide staining based flow cytometry; assay type: functional
T47D [4] = test: Potency index, ratio of cisplatin GI50 to compound GI50 for human T47D cells; assay type: functional
SW1573 [5] = test: Cell cycle arrest in human SW1573 cells assessed as accumulation at subG1-phase at 1 uM after 24 hrs by propidium iodide staining based flow cytometry; assay type: functional
[6] = GPx-like activity of the compound assessed as velocity for H2O2 reduction by measuring oxidation of PhSH to (PhS)2 at 50 uM measured for 180 secs by spectrophotometric analysis; assay type: functional
T47D [7] = test: Cell cycle arrest in human T47D cells assessed as accumulation at G1-phase at 0.2 uM after 24 hrs by propidium iodide staining based flow cytometry; assay type: functional
HeLa [8] = test: cells; details: Homo sapiens, 48 h
Description: Antiproliferative activity against human HeLa cells after 48 hrs by SRB assay

A549 [9] = test: cells; details: Homo sapiens, A549, 48 h
Description: Antiproliferative activity against human A549 cells after 48 hrs by SRB assay

WiDr [10] = test: Cell cycle arrest in human WiDr cells assessed as accumulation at G1-phase at 0.2 uM after 24 hrs by propidium iodide staining based flow cytometry; assay type: functional
T47D [11] = test: cells; details: Homo sapiens, 48 h
Description: Antiproliferative activity against human T47D cells after 48 hrs by SRB assay

SW1573 [12] = test: Potency index, ratio of 5-FU GI50 to compound GI50 for human SW1573 cells; assay type: functional
HBL-100 [13] = test: Potency index, ratio of cisplatin GI50 to compound GI50 for human HBL100 cells; assay type: functional
A549 [14] = test: Cell cycle arrest in human A549 cells assessed as accumulation at G1-phase at 0.2 uM after 24 hrs by propidium iodide staining based flow cytometry; assay type: functional
WiDr [15] = test: Cell cycle arrest in human WiDr cells assessed as accumulation at subG1-phase at 1 uM after 24 hrs by propidium iodide staining based flow cytometry; assay type: functional
HeLa [16] = test: Cell cycle arrest in human HeLa cells assessed as accumulation at subG1-phase at 1 uM after 24 hrs by propidium iodide staining based flow cytometry; assay type: functional
[17] = GPx-like activity of the compound assessed as H2O2 reduction by measuring oxidation of PhSH to (PhS)2 at 50 uM measured for 180 secs by spectrophotometric analysis relative to control; assay type: functional
A549 [18] = test: Potency index, ratio of cisplatin GI50 to compound GI50 for human A549 cells; assay type: functional
Acetylcholinesterase [19] = biological target: T1, Acetylcholinesterase (Electrophorus electricus, UniProt O42275); test: Non-competitive inhibition of electric eel AChE assessed as enzyme-substrate-inhibitor complex using p-nitrophenyl acetate as substrate by Lineweaver-Burk plot analysis
T1 sequence (O42275 whole entry): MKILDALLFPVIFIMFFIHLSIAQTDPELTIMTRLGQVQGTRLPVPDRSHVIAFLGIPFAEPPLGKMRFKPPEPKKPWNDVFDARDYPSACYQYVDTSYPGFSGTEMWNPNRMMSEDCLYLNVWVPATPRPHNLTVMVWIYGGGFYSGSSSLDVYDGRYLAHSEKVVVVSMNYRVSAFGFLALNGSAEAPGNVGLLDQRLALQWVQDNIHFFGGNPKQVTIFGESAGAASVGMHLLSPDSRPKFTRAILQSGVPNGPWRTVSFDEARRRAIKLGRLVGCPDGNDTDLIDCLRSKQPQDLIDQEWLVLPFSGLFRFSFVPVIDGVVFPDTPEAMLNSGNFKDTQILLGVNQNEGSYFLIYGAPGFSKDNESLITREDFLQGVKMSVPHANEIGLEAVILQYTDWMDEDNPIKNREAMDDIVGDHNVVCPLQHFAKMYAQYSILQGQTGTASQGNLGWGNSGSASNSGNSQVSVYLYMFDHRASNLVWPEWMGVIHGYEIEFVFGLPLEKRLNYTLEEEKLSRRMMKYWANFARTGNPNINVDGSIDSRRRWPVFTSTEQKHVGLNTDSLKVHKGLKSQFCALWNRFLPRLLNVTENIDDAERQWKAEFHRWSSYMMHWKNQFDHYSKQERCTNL

SW1573 [20] = test: Potency index, ratio of cisplatin GI50 to compound GI50 for human SW1573 cells; assay type: functional
Cholinesterase [21] = biological target: T2, Cholinesterase (Equus caballus, UniProt P81908); test: Mixed-type inhibition of equine serum BuChE assessed as enzyme-inhibitor complex using p-nitrophenyl butyrate as substrate by Lineweaver-Burk plot analysis
T2 sequence (P81908 whole entry): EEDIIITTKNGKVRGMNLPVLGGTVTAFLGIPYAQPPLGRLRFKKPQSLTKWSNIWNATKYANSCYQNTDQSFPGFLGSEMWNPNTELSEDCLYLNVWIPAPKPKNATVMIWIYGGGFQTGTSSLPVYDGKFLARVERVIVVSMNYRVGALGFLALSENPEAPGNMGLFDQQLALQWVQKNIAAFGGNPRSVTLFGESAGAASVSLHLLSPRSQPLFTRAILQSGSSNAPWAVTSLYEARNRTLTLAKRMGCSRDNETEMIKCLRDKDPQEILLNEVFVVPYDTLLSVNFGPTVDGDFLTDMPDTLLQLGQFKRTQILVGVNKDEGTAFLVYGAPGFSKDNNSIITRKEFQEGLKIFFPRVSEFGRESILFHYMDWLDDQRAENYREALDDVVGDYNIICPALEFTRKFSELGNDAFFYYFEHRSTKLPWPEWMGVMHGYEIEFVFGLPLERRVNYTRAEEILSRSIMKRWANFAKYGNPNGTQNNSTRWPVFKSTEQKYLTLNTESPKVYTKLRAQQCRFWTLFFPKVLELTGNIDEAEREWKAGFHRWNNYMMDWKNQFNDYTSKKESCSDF

HeLa [22] = test: Potency index, ratio of cisplatin GI50 to compound GI50 for human HeLa cells; assay type: functional
T47D [23] = test: Potency index, ratio of 5-FU GI50 to compound GI50 for human T47D cells; assay type: functional
Acetylcholinesterase [24] = biological target: T1, Acetylcholinesterase; test: Non-competitive inhibition of electric eel AChE assessed as enzyme-inhibitor complex using p-nitrophenyl acetate as substrate by Lineweaver-Burk plot analysis
[25] = GPx-like activity of the compound assessed as half life for H2O2 reduction by measuring oxidation of PhSH to (PhS)2 at 50 uM measured for 180 secs by spectrophotometric analysis relative to control; assay type: functional
[26] = Selectivity index, ratio of Ki for equine serum BuChE assessed as enzyme-substrate-inhibitor complex to Ki for electric eel AChE assessed as enzyme-substrate-inhibitor complex
HBL-100 [27] = test: Potency index, ratio of 5-FU GI50 to compound GI50 for human HBL100 cells; assay type: functional
WiDr [28] = test: cells; details: Homo sapiens, 48 h
Description: Antiproliferative activity against human WiDr cells after 48 hrs by SRB assay

in vitro = details: human, hTERT-BJ cells
Description: Antiproliferative activity against human hTERT-BJ cells after 48 hrs by SRB assay

WiDr [29] = test: Potency index, ratio of 5-FU GI50 to compound GI50 for human WiDr cells; assay type: functional
HBL-100 [30] = test: cells; details: Homo sapiens, HBL-100, 48 h
Description: Antiproliferative activity against human HBL100 cells after 48 hrs by SRB assay

Cholinesterase [31] = biological target: T2, Cholinesterase; test: Mixed-type inhibition of equine serum BuChE assessed as enzyme-substrate-inhibitor complex using p-nitrophenyl butyrate as substrate by Lineweaver-Burk plot analysis
HeLa [32] = test: Potency index, ratio of 5-FU GI50 to compound GI50 for human HeLa cells; assay type: functional
HBL-100 [33] = test: Cell cycle arrest in human HBL100 cells assessed as accumulation at G1-phase at 0.2 uM after 24 hrs by propidium iodide staining based flow cytometry; assay type: functional
A549 [34] = test: Cell cycle arrest in human A549 cells assessed as accumulation at subG1-phase at 1 uM after 24 hrs by propidium iodide staining based flow cytometry; assay type: functional
WiDr [35] = test: Potency index, ratio of cisplatin GI50 to compound GI50 for human WiDr cells; assay type: functional
T47D [36] = test: Cell cycle arrest in human T47D cells assessed as accumulation at subG1-phase at 1 uM after 24 hrs by propidium iodide staining based flow cytometry; assay type: functional
HBL-100 [37] = test: Cell cycle arrest in human HBL100 cells assessed as accumulation at subG1-phase at 1 uM after 24 hrs by propidium iodide staining based flow cytometry; assay type: functional

## c1ccc2c(NCCCCCC[Se][Se]CCCCCCNc3c4c(nc5ccccc35)CCCC4)c3c(nc2c1)CCCC3
SW1573 [1]
  Activity: Active
SW1573 [2]
  GI50: 130 nM
HeLa [3]
  Activity: Active
T47D [4]
  RatioGI50: <=162
SW1573 [5]
  Activity: Active
[6]
  Activity: 36.5 µM/min
T47D [7]
  Activity: Active
HeLa [8]
  GI50: 160 nM
A549 [9]
  GI50: 140 nM
WiDr [10]
  Activity: Active
T47D [11]
  GI50: 210 nM
SW1573 [12]
  RatioGI50: <=306
HBL-100 [13]
  RatioGI50: <=162
A549 [14]
  Activity: Active
WiDr [15]
  Activity: Active
HeLa [16]
  Activity: Active
[17]
  fold change (FC): 4.7
A549 [18]
  RatioGI50: <=162
Acetylcholinesterase [19]
  Ki: 26.3 nM
SW1573 [20]
  RatioGI50: <=162
Cholinesterase [21]
  Ki: 43.3 nM
HeLa [22]
  RatioGI50: <=162
T47D [23]
  RatioGI50: <=306
Acetylcholinesterase [24]
  Ki: 26.3 nM
[25]
  T1/2: 1.14 h
[26]
  Ratio Ki: 2.8
HBL-100 [27]
  RatioGI50: <=306
WiDr [28]
  GI50: 240 nM
In vitro
  GI50 at 48 h: 240 nM
WiDr [29]
  RatioGI50: <=306
HBL-100 [30]
  GI50: 170 nM
Cholinesterase [31]
  Ki: 73.3 nM
HeLa [32]
  RatioGI50: <=306
HBL-100 [33]
  Activity: Active
A549 [34]
  Activity: Active
WiDr [35]
  RatioGI50: <=162
T47D [36]
  Activity: >50%
HBL-100 [37]
  Activity: >50%
